Experiments:
CD8-positive cells = assay: IFN-γ ELISPOT after mGPC3-1 peptide vaccine in STAM mice; type: in vivo, STAM mice C57BL/6N-NASH; conditions: STAM mice immunized seven times with mGPC3-1 peptide vaccine; CD8-positive cells against RMA-S pulsed with mGPC3-1 peptide; n=3
[1] = system: RMA-S pulsed with mGPC3-1 peptide; assay: Cytotoxicity assay; type: cell-based, mouse; conditions: mGPC3-1-specific CTL line against RMA-S pulsed with mGPC3-1 peptide; calcein AM, 4 h; non-pulsed RMA-S 2.2%
[2] = system: RMA-S pulsed with mGPC3-1 peptide; assay: IFN-γ ELISPOT of mGPC3-1 peptide-specific CTL line against peptide-pulsed RMA-S; type: cell-based, mouse; conditions: CTL line 1×10^5, RMA-S 5×10^4 pulsed with 10 μg/ml peptide, 20 h
GPC3-specific CTLs = conditions: without an autoimmune response; cited from earlier work

Row | Sequence | average number of spots (IFN-γ ELISPOT) (CD8-positive cells) | % cytotoxicity [1] | IFN-γ release of CTL line to peptide-pulsed vs non-pulsed RMA-S (in words) [2] | induction of GPC3-specific CTLs (in words) (GPC3-specific CTLs)
1 | AMFKNNYPSL [mGPC3-1] | 100±74.3 spots | 16.4% | clearly released more IFN-γ | –
2 | EYILSLEEL [GPC3_298–306] | – | – | – | can induce GPC3-specific CTLs
3 | FVGEFFTDV [GPC3_144–152] | – | – | – | can induce GPC3-specific CTLs

Source: article PMC3597455 (International Journal of Oncology, 2013)
